Data from ChEMBL document CHEMBL1811844, “Design, synthesis, and biological evaluation of triazolo-pyrimidine derivatives as novel inhibitors of hepatitis B virus surface antigen (HBsAg) secretion” (J Med Chem, 2011).

Test: Cytotoxicity against human HepG2(2.2.15) cells by MTT assay
Type: cell-based

Cc1ccc(C2=CC(c3c(F)cccc3Cl)n3ncnc3N2)cc1C (stereo unspecified)
CC50: > 50 µM
